Consider eight compounds from patent US20260258031A1, “CRYSTALLINE FORMS OF AN ESTROGEN RECEPTOR ANTAGONIST” (Olema Pharmaceuticals, Inc., priority 2022, published 2026).

“And” between values parts separate entries of the source, which are not always exact repeats. Equal values may be shown once.

The conditions of series [1]: co-former acid of salt screen; cited from earlier work.
Series [2] in a line: Solubility in solvents, dynamic method. It counts as physicochemical. Particulars: for solubility at 15 min: organic solvent or mixture, thermodynamic from solid, dynamic method. The procedure: […] Solubility was measured by the dynamic method and gravimetric method.
Dynamic method: Under the condition of a certain amount of solute and certain temperature, solvent was gradually added with stirring for 15 min to reach equilibrium. When solute is completely dissolved, amount of solvent was recorded and the solubility calculated.

The nature of series [3]: Solubility, gravimetric method. It counts as physicochemical. Particulars: H2O, 25° C.; for solubility: gravimetric method. As to the method:
Solubility studies of Compound 1 and Compound 1 Fumarate in different solvents at 25° C. were performed. Solubility was measured by the dynamic method and gravimetric method.
Gravimetric method: Excess solids and a certain amount of solvent were added 8 mL vials, stirred for 24 hours, and filtered.

Series [4] can be described thus: Bulk density (untapped, graduated cylinder). It counts as physicochemical. The procedure: Bulk density of Compound 1 Fumarate Form E was measured by gently introducing a known sample mass into a graduated cylinder (50 mL), leveling the powder without compacting it, and recording the apparent untapped volume to the nearest graduated unit.
Series [5] can be described thus: Stability in oven at 60° C. for two weeks (HPLC purity, XRPD). Particulars: for HPLC Purity (%) 60° C.: after two weeks at 60° C.; for HPLC Purity (%) Starting: before storage; for Stability relative to Amorphous Compound 1 / XRPD change after storage: two weeks at 60° C.; for HPLC Purity (%) Degradation: two weeks at 60° C. versus starting. It counts as physicochemical. As to the method:
Amorphous Compound 1, Compound 1 Fumarate Form E, and Compound 1 Fumarate Form A Anhydrate were placed in an oven at 60° C. for two weeks to evaluate their stability.

Series [6] can be described thus: Competitive slurry experiments Form E / Form A Anhydrate (XRPD). It counts as physicochemical. Particulars: 25° C. or 40° C. The procedure:
Competitive slurry experiments were performed with Compound 1 Fumarate Form E and Compound 1 Fumarate Form A Anhydrate, as follows:
Experiment #1: Compound 1 Fumarate Form E (100 mg), Compound 1 Fumarate Form A Anhydrate (100 mg), and isopropanol (2 mL) were added into two 8-mL vials and mixed well in a shaker at 25° C. and 40° C., respectively. Samples for analysis were taken at 24 h and 72 h.
Experiment #2: Compound 1 Fumarate Form E (100 mg), Compound 1 Fumarate Form A Anhydrate (100 mg), and water (2 mL) were added into two 8-mL vials and mixed well in a shaker at 25° C. and 40° C., respectively. Samples for analysis were taken at 24 h and 72 h.
Experiment #3: Compound 1 Fumarate Form E (100 mg), Compound 1 Fumarate Form A Anhydrate (100 mg), and ethyl acetate (2 mL) were added into two 8-mL vials and mixed well in a shaker at 25° C. and 40° C., respectively. Samples for analysis were taken at 24 h and 72 h.

Series [7] in a line: Dynamic vapor sorption (DVS), hygroscopicity. It counts as physicochemical. Particulars: for Hygroscopicity (%), water uptake: 25° C./80% RH. The procedure: DVS was performed using Intrinsic DVS ([…], UK). About 30-50 mg of sample was placed in a sample basked and hung in the measuring chamber. For an isotherm test, the chamber temperature was maintained by a water bath at a constant 25±1° C. The sample was tested at a targeted RH from 0 to 90% full cycle in step mode. The analysis was performed in 10% RH increments. Time duration at each RH was set as 60 min so that the sample could reach equilibrium with the chamber environment. Data were collected in 20 s increments.

Series [8] is described as follows: Kinetic solubility of Fumarate Form A Ethyl Acetate Solvate, solvent aliquot addition. It counts as physicochemical. Particulars: thermodynamic from solid, ambient temperature. The procedure:
The screen consisted primarily of long term slurry experiments. To help design screen experiments, kinetic solubilities of Fumarate Form A Ethyl Acetate Solvate were estimated. The estimation was done on a 3-11 mg scale using a solvent aliquot addition method, and dissolution was judged by visual observation. Solubilities are estimated at ambient temperature and reported to the nearest mg/mL; if complete dissolution was achieved by one aliquot addition, solubilities were reported as “>”;

A word on the pKa: it is the negative logarithm of the acid dissociation constant. On to `O=C(O)c1cc2ccccc2c(Cc2c(O)c(C(=O)O)cc3ccccc23)c1O` [Pamoic Acid], for which the pKa in series [1] is on record as 2.51.
In general, solubility refers to the dissolved amount per volume that the medium holds. Consider `CCCN1CC(Oc2ccc([C@@H]3c4[nH]c5ccccc5c4C[C@@H](C)N3CC(C)(C)F)cc2)C1.O=C(O)/C=C/C(=O)O` [Compound 1 Fumarate Form E], for which the “Solubility in isopropanol (in words)” value in series [2] (25° C.) is on record as “very low solubility”. Further, the “Change of solubility with increasing proportion of heptane” value in series [2] (isopropanol/heptane, 25° C.) is on record as “decreased significantly”. The solubility at 15 min in series [2] (IPA, 0° C.) is less than 1000 µg/mL; in series [2] (IPA, 25° C.), roughly 8460 µg/mL; in series [2] (IPA/heptane (1/1), 25° C.), roughly 2350 µg/mL; in series [2] (IPA/heptane (1/3), 25° C.), less than 1000 µg/mL; in series [2] (IPA/heptane (5/1), 25° C.) it was 5890 µg/mL; in series [2] (IPA/heptane (5/3), 25° C.), roughly 3570 µg/mL. The “Solubility compared with Compound 1 Fumarate Form A Anhydrate” value in series [3] is listed as “much lower solubility”. This compound also gave a solubility in series [3] of 1000 µg/mL. Moreover, the “Bulk Density, Average” value in series [4] (average of three runs) is given as 0.1239 g/mL. Also, in series [4] (single runs 1-3, untapped), the “Bulk Density” value is 0.1288 g/mL and 0.1233 g/mL and 0.1196 g/mL. The “HPLC Purity (%) 60° C.” value in series [5] is 99.50%. In series [5], the “HPLC Purity (%) Starting” value was determined as 99.54%. Besides, the “Stability relative to Amorphous Compound 1” value in series [5] is “improved stability”. Besides, the “XRPD change after storage” value in series [5] is “No change”. Further, in series [5], the “HPLC Purity (%) Degradation” value is on record as −0.05%. For the same compound, the “Outcome of competitive slurry (XRPD)” value in series [6] (ethyl acetate, after 72 h) is “a mixture of Compound 1 Fumarate Form E and Compound 1 Fumarate Form A Anhydrate remained”; in series [6] (isopropanol, after 24 h), “more stable than Form A Anhydrate”; in series [6] (water, after 72 h) it was “a mixture of Compound 1 Fumarate Form E and Compound 1 Fumarate Form A Anhydrate remained”. Also, the “Hygroscopicity by DVS (in words)” value in series [7] (25° C., 0 to 90% RH cycle) was “not hygroscopic”.
Take `O=C1CC[C@@H](C(=O)O)N1` [(−)-L-Pyroglutamic acid]: the pKa in series [1] is reported as 3.32.
On to `CCCN1CC(Oc2ccc([C@@H]3c4[nH]c5ccccc5c4C[C@@H](C)N3CC(C)(C)F)cc2)C1` [Amorphous Compound 1, (1R,3R)-2-(2-fluoro-2-methylpropyl)-3-methyl-1-(4-((1-propylazetidin-3-yl)oxy)phenyl)-2,3,4,9-tetrahydro-1H-pyrido[3,4-b]indole], for which the “Solubility in isopropanol (in words)” value in series [2] (25° C.) was “high solubility”. In addition, in series [5], the “HPLC Purity (%) 60° C.” value is 98.94%, the “HPLC Purity (%) Starting” value is listed as 99.23%, the “XRPD change after storage” value was “No change” and the “HPLC Purity (%) Degradation” value was −0.29%. For the same compound, in series [7], the “Hygroscopicity (%), water uptake” value was “hygroscopic (0.463) %” and the “Form Change after DVS?” value is given as “No”.
In series [3], `CCCN1CC(Oc2ccc([C@@H]3c4[nH]c5ccccc5c4C[C@@H](C)N3CC(C)(C)F)cc2)C1.O=C(O)/C=C/C(=O)O` [Compound 1 Fumarate Form A Anhydrate] gave a solubility of 6500 µg/mL. In addition, in series [5], the “HPLC Purity (%) 60° C.” value was 99.54%, the “HPLC Purity (%) Starting” value turned out to be 99.58%, the “Stability relative to Amorphous Compound 1” value is recorded as “improved stability” and the “XRPD change after storage” value was “No change”. In series [5], the “HPLC Purity (%) Degradation” value was −0.04%. In addition, the “Outcome of competitive slurry (XRPD)” value in series [6] (ethyl acetate, after 72 h) was “a mixture of Compound 1 Fumarate Form E and Compound 1 Fumarate Form A Anhydrate remained”. In series [6] (isopropanol, after 24 h), the “Outcome of competitive slurry (XRPD)” value is on record as “completely transformed into Compound 1 Fumarate Form E”. In series [6] (water, after 72 h), the “Outcome of competitive slurry (XRPD)” value was “a mixture of Compound 1 Fumarate Form E and Compound 1 Fumarate Form A Anhydrate remained”. In addition, in series [7], the “Hygroscopicity (%), water uptake” value is reported as “hygroscopic (0.108) %” and the “Form Change after DVS?” value is on record as “No”.
On to `CCCN1CC(Oc2ccc([C@@H]3c4[nH]c5ccccc5c4C[C@@H](C)N3CC(C)(C)F)cc2)C1.O=C(O)/C=C/C(=O)O`, for which the solubility in series [8] (aqueous with cosolvent or surfactant or cyclodextrin, IPA/water (50/50)) was greater than 124000 µg/mL; in series [8] (organic solvent or mixture, 2-BuOH) it was 17000 µg/mL; in series [8] (organic solvent or mixture, 2-MeTHF), 32000 µg/mL; in series [8] (organic solvent or mixture, ACN, re-precipitated after first aliquot) it was less than 2000 µg/mL; in series [8] (organic solvent or mixture, Anisole) it was less than 1000 µg/mL; in series [8] (organic solvent or mixture, DCE) it was less than 9000 µg/mL. In addition, the solubility in series [8] (organic solvent or mixture, DCE/EtOH (96/4)) was no less than 8000 µg/mL; in series [8] (organic solvent or mixture, Dioxane), greater than 104000 µg/mL; in series [8] (organic solvent or mixture, IPA) it was 20000 µg/mL; in series [8] (organic solvent or mixture, MIBK), 4000 µg/mL; in series [8] (organic solvent or mixture, MTBE), 2000 µg/mL; in series [8] (organic solvent or mixture, TFE), greater than 100000 µg/mL. Besides, in series [8] (organic solvent or mixture, t-BuOAc, re-precipitated after first aliquot), the solubility is 1000 µg/mL.
Turning to `O=C(O)CO` [Glycolic Acid], the pKa in series [1] is recorded as 3.28.
Consider `O=C(O)/C=C/C(=O)O` [Fumaric acid], for which the “Solubility in isopropanol (in words)” value in series [2] (25° C.) was “relatively low solubility”.
